What was measured:
Pyricularia oryzae [1] = assay: Antifungal activity against wild type Magnaporthe oryzae Hoku-1 in rice seedlings assessed as preventive value of rice blast at 5 ug/ml systemic application at 22 to 30 degC by pot test; format: functional
Pyricularia oryzae [2] = assay: Antifungal activity against wild type Magnaporthe oryzae Hoku-1 in rice seedlings assessed as preventive value of rice blast at 5 ug/ml foliar spray at 26 degC by pot test; format: functional

| Structure (SMILES) | Activity (Pyricularia oryzae [1]) | Activity (Pyricularia oryzae [2]) |
| --- | --- | --- |
| CCC1(C(=O)NCCc2cnc(Cl)s2)C(C)C1(Cl)Cl (stereo not given) | 40% | 40% |
| CC1C(Cl)(Cl)C1(C)C(=O)NCCc1csc(Cl)c1 (stereo not given) | 40% | 40% |
| CC1(C)C(C(=O)NCCc2csc(Cl)c2)C1(Cl)Cl (stereo not given) | <40% | <40% |
| CC1(C)C(Cl)(Cl)C1(C)C(=O)NCCc1csc(Cl)c1 (stereo not given) | 40% | 40% |
| CC(C)C1(C(=O)NCCc2csc(Cl)c2)CC1(Cl)Cl (stereo not given) | 40% | 40% |
| CCCC1(C(=O)NCCc2csc(Cl)c2)CC1(Cl)Cl (stereo not given) | <40% | <40% |
| CC(C)(C)C(C#N)C(=O)NCCc1csc(Cl)c1 (stereo not given) | 65% | 40% |
| CC(C)(C)C(Cl)C(=O)NCCc1csc(Cl)c1 (stereo not given) | 40% | 40% |
| CC(C)(C)C(Br)C(=O)NCCc1csc(Cl)c1 (stereo not given) | 40% | 40% |
| CCC1(C(=O)NCCc2ccc(F)cc2F)C(C)C1(Cl)Cl (stereo not given) | 40% | 40% |
| CCC1(C(=O)NCCc2ccc(C(F)(F)F)cc2)C(C)C1(Cl)Cl (stereo not given) | 40% | 40% |
| CCC1(C(=O)NCCc2ccccc2Cl)C(C)C1(Cl)Cl (stereo not given) | 40% | 40% |
| CCC1(C(=O)NCCc2cccc(Cl)c2)C(C)C1(Cl)Cl (stereo not given) | 40% | 40% |
| CCC1(C(=O)NCCc2ccc(Cl)cc2Cl)C(C)C1(Cl)Cl (stereo not given) | 40% | 40% |
| CCC1(C(=O)NCCc2ccc(Cl)c(Cl)c2)C(C)C1(Cl)Cl (stereo not given) | 40% | 40% |
| CCC1(C(=O)NCCc2ccc(Br)cc2)C(C)C1(Cl)Cl (stereo not given) | <40% | <=40% |
| CCC1(C(=O)NCCc2ccc(C)cc2)C(C)C1(Cl)Cl (stereo not given) | <40% | <40% |
| CCC1(C(=O)NCCc2ccsc2)C(C)C1(Cl)Cl (stereo not given) | <=40% | 40% |
| CCC1(C(=O)NCCc2csc(Cl)c2)C(C)C1(Cl)Cl (stereo not given) | 65% | 65% |
| CCC1(C(=O)NCCc2cc(Cl)cs2)C(C)C1(Cl)Cl (stereo not given) | 40% | 40% |
| CCC1(C(=O)NCCc2ccc(Cl)s2)C(C)C1(Cl)Cl (stereo not given) | 40% | 40% |
| CCC1(C(=O)NCCc2csc(Br)c2)C(C)C1(Cl)Cl (stereo not given) | <40% | 40% |
| CCC1(C(=O)NCCc2cc(Cl)sc2Cl)C(C)C1(Cl)Cl (stereo not given) | <40% | 40% |

| Structure (SMILES) | Activity (Pyricularia oryzae [1]) | Activity (Pyricularia oryzae [2]) |
| --- | --- | --- |
| CCC1(C(=O)NCCc2cc(Cl)c(Cl)s2)C(C)C1(Cl)Cl (stereo not given) | 40% | <=40% |
| CCC1(C(=O)NC(C)c2cc(Cl)cs2)C(C)C1(Cl)Cl (stereo not given) | <=40% | <=40% |
| CCC1(C(=O)NC(C)c2ccc(Cl)s2)C(C)C1(Cl)Cl (stereo not given) | <=40% | <=40% |
| CCC1(C(=O)NC(C)c2csc(Cl)c2)C(C)C1(Cl)Cl (stereo not given) | 40% | <=40% |
| CCC1(C(=O)NC(C)c2cc(Cl)c(Cl)s2)C(C)C1(Cl)Cl (stereo not given) | <=40% | 40% |
| CCC1(C(=O)NCCc2csc(Cl)n2)C(C)C1(Cl)Cl (stereo not given) | 40% | 40% |
| CCC1(C(=O)NC(C)C)C(C)C1(Cl)Cl (stereo not given) | <40% | <40% |
| CCC(C)NC(=O)C1(CC)C(C)C1(Cl)Cl (stereo not given) | <40% | <40% |
| CCC1(C(=O)NCCC(F)(F)F)C(C)C1(Cl)Cl (stereo not given) | <40% | <40% |
| CCC1(C(=O)NC(C)C2CCC2)C(C)C1(Cl)Cl (stereo not given) | <40% | <40% |
| CCC1(C(=O)NC(C)C2CCCC2)C(C)C1(Cl)Cl (stereo not given) | 40% | <40% |
| CCC1(C(=O)NC(C)C2CCCCC2)C(C)C1(Cl)Cl (stereo not given) | <40% | <40% |
| CCC1(C(=O)NC(C)C2CCCCCC2)C(C)C1(Cl)Cl (stereo not given) | <40% | <40% |
| CCC1(C(=O)Nc2ccc(Cl)cc2)C(C)C1(Cl)Cl (stereo not given) | <40% | <40% |
| CCC1(C(=O)NCc2ccc(Cl)cc2)C(C)C1(Cl)Cl (stereo not given) | 40% | <=40% |
| CCC1(C(=O)NCCc2ccc(Cl)cc2)C(C)C1(Cl)Cl (stereo not given) | 40% | 40% |
| CCC1(C(=O)NCCCc2ccc(Cl)cc2)C(C)C1(Cl)Cl (stereo not given) | 40% | 40% |
| CCC(NC(=O)C1(CC)C(C)C1(Cl)Cl)c1ccc(Cl)cc1 (stereo not given) | <40% | <=40% |
| CCC1(C(=O)NCC(C)c2ccc(Cl)cc2)C(C)C1(Cl)Cl (stereo not given) | 40% | 40% |
| CCC1(C(=O)NC(C)Cc2ccc(Cl)cc2)C(C)C1(Cl)Cl (stereo not given) | <40% | <40% |
| CCC1(C(=O)NCCc2ccc(F)cc2)C(C)C1(Cl)Cl (stereo not given) | 40% | 40% |
| CC[C@@]1(C(=O)N[C@H](C)c2ccc(Cl)cc2)[C@@H](C)C1(Cl)Cl (mixture of isomers) [CARPROPAMIDE] | >90% | >90% |
